# From patent US20190076440A1, “TREATMENT OF TISSUE DISORDERS” (priority 2016, published 2019)
# Experiments:
# mutant collagen X = assay: Western blot of intracellular mutant collagen X protein, with proteasome or lysosome inhibitors; format: cell-based
# Description: FIG. 1 illustrates the effects of carbamazepine treatment on ER stress induced by four different MCDS-causing mutations in collagen X; (a) BiP, b) CHOP c) spliced XBP1 mRNA level in cells transiently expressing one of four mutant collagen X constructs and treated for 24 hours with Carbamazepine (CBZ) (20 μM). Quantitation is relative to actin mRNA levels. Mean±SEM. (d) Western blot showing intracellular collagen X protein levels with and without 24 hours CBZ treatment. Quantification of three independent experiments shown in (e). (f) Western blot for N617K collagen X collagen X protein levels in the presence of CBZ for either 0 or 24 hours. […] Quantification of three independent experiments relative to GAPDH and standardised against the protein level in the 16 h untreated timepoint is shown in (h) and (i). […]
# FIG. 6 illustrates the degradation route of mutant collagen X proteins Western blot for (a) G618V or (c) Y598D collagen X protein levels in the presence of CBZ for either 0 or 24 hours. […] Quantification of three independent experiments relative to GAPDH and standardised against the protein level in the 16 h untreated timepoint is shown in (b) and (d). […]
# Protein was extracted from cells 24 hours post-transfection. […] The resulting supernatant was transferred to a fresh tube and protein concentration determined using a Pierce bicinchoninic acid (BCA) protein assay. […]
# [1] = tested on: wild type (+/+) and Col1a2 p.G610C (+/-) mice osteoblast cells; assay: Alkaline phosphatase activity assay in osteoblasts; format: cell-based, mouse; conditions: 7 days in osteogenic differentiation media
# Description: Osteoblasts were cultured for 7 days in osteogenic differentiation media prior to fixation and staining. Photographs of 12-well plate wells containing wild type (+/+) and Col1a2 p.G610C (+/−) mice osteoblast cells untreated (DMSO) or treated with CBZ; and
# The effects of CBZ were studied on Calvarial osteoblasts from Col1a2 p.G610C mice lines (Osteogenesis Imperfecta mouse model).
# For testing of Alkaline phosphatase activity wild type (+/+) and heterozygous ((+/−) from Col1 a2 p.G610C mice) osteoblasts were cultured for 7 days in osteogenic differentiation media and with DMSO (control) or CBZ prior to fixation and staining with an Alkaline phosphate staining kit as per the manufactures instructions.
# HeLa cells = assay: Cell viability of cells treated with CBZ; format: cell-based; conditions: 20 μM CBZ
# Description: FIG. 5 illustrates the effect of CBZ treatment in vitro (a) Cell viability of cell treated with 20 μM CBZ. (b) Collagen X mRNA level of HeLa cells transiently transfected with a rang of collagen X mutations in the presence or absence of CBZ for 24 hours. (c) General protein synthesis rates of cells expressing wild-type (WT) or N617K collagen X and treated with CBZ for 24 hours. UTF=untransfected cell controls. Mean±SEM of three independent experiments in each case.
smiles,measurement,setting,value
"NC(=O)N1c2ccccc2C=Cc2ccccc21 [CBZ, Carbamazepine]",degradation rates of mutant collagen X proteins,"mutant collagen X; each of 4 mutant collagen X proteins, PSII or chloroquine for the final 8 hours",enhanced the degradation rates
same,intracellular levels of mutant collagen X protein,"mutant collagen X; each of 4 mutations, 24 hours CBZ treatment",significant reductions
same,ALP activity,[1]; OI model (Col1a2 p.G610C +/-) osteoblasts,No change
same,ALP activity,[1]; wild type osteoblasts,No change
same,cell viability,HeLa cells,did not affect
